Our source for the IC50, Inhibition and inhibition values is ChEMBL document CHEMBL1145225, “Antitumor agents. Part 236: Synthesis of water-soluble colchicine derivatives” (Bioorg Med Chem Lett, 2005).

Converted amounts (≈) assume the structure as drawn.

The nature of experiment [1]: In vitro cytotoxic activity against human lung carcinoma (A549) tumor cell line. The class given is cell-based.
The test system of experiment [2] is KB-V (P-gp-expressing MDR KB subclone). In words: Percentage inhibition of multi drug resistant KB subclone growth expressing P-glycoprotein (KB-V) at 4 ug/mL concentration was determined. The following applies: for inhibition at 4 µg/mL: Homo sapiens, KB-V.
The nature of experiment [3]: (§1) In vitro cytotoxic activity against human epidermoid carcinoma of the nasopharynx (KB) tumor cell line.
Experiment [4] in a line: In vitro cytotoxic activity against human ovarian carcinoma (1A9) tumor cell line.
Another experiment relates to KB. Described as §1. The format is functional, cell-based.

By IC50 is commonly meant the midpoint of a concentration-inhibition curve. As usually defined, the Inhibition is the change of the read-out against control, counted positive when it falls. A lower Inhibition goes with a response near the control. For `COc1cc2c(c(OC)c1OC(=O)CN(C)C)-c1ccc(OC)c(=O)cc1[C@@H](NC(C)=O)CC2.O=C(O)C(O)C(O)C(=O)O`, the values for the IC50 in experiment [1], in experiment [3] and in experiment [4] were 0.88 µg/mL, 0.16 µg/mL and 0.11 µg/mL, respectively. In experiment [2], the Inhibition came out at 4%.
Broadly, the inhibition is the relative decrease from the control value, in per cent. A higher inhibition goes with a strong effect. In the case of `COc1cc2c(c(OC)c1OC(=O)CN(C)C)-c1ccc(OC)c(=O)cc1[C@@H](NC(C)=O)CC2`, the IC50 in experiment [1] was found to be 0.44 µg/mL (≈ 0.935 µM); with KB, 0.09 µg/mL (≈ 0.191 µM); in experiment [4], 0.04 µg/mL (≈ 0.085 µM). In experiment [2], this molecule gave an inhibition at 4 µg/mL of 5%.
Take `COc1cc2c(c(OC)c1O)-c1ccc(SC)c(=O)cc1[C@@H](NC(C)=O)CC2`: the half-inhibitory concentration (IC50) in experiment [1], in experiment [3] and in experiment [4] was 0.01 µg/mL (≈ 0.0249 µM) each time. For the same molecule, in experiment [2], the inhibition at 4 µg/mL is 56%.
On to `COc1cc2c(c(OC)c1OC(=O)CN(C)C)-c1ccc(SC)c(=O)cc1C(NC(C)=O)CC2` (single isomer, unassigned; 5), for which the IC50 turned out to be 0.05 µg/mL (≈ 0.103 µM) in experiment [1], 0.02 µg/mL (≈ 0.0411 µM) in experiment [3] and 0.05 µg/mL (≈ 0.103 µM) in experiment [4]. In experiment [2], this molecule gave an inhibition at 4 µg/mL of 45%.
Turning to `COc1cc2c(c(OC)c1OC(=O)CN(C)C)-c1ccc(SC)c(=O)cc1C(NC(C)=O)CC2.O=C(O)C(O)C(O)C(=O)O` (single isomer, unassigned; 5a), the IC50 is 0.06 µg/mL in experiment [1], 0.02 µg/mL in experiment [3] and 0.01 µg/mL in experiment [4]. Moreover, in experiment [2], the Inhibition is 28%.
Regarding `COc1cc2c(c(OC)c1O)-c1ccc(OC)c(=O)cc1[C@@H](NC(C)=O)CC2` [2-DESMETHYLCOLCHICIN], the half-maximal inhibitory concentration (IC50) in experiment [1], in experiment [3] and in experiment [4] was 0.1 µg/mL (≈ 0.259 µM) each time. Further, the inhibition at 4 µg/mL in experiment [2] was 24%.
For the molecule `COc1cc2c(c(OC)c1OC)-c1ccc(=O)c(O)cc1[C@@H](NC(C)=O)CC2` [COLCHICEINE], the results for the IC50 in experiment [1], in experiment [3] and in experiment [4] were 0.002 µg/mL (≈ 0.00519 µM), 0.003 µg/mL (≈ 0.00778 µM) and 0.003 µg/mL (≈ 0.00778 µM), respectively.
